From paper PMC5547393, “Aromatase inhibitory activity of 1,4-naphthoquinone derivatives and QSAR study” (EXCLI Journal, 2017)

Tests used:
MRC-5 cell line [1] = experiment: Cytotoxicity against the normal MRC-5 cell line; format: cell-based; conditions: MRC-5 cytotoxicity versus aromatase IC50
From the text: The cytotoxicity of compounds 1-11 against the normal MRC-5 cell line (Table 1(Tab. 1)) was previously documented (Prachayasittikul et al., 2014[35]).

MRC-5 cell line [2] = system: MRC-5 cell line; set-up: method as in Prachayasittikul et al., 2014[35]; conditions: normal MRC-5 cell line, ref Prachayasittikul et al., 2014[35], cited from earlier work; for IC50: read-out: MRC-5 (µM) cytotoxicity
[3] = target: T1, recombinant human aromatase (CYP19) (Homo sapiens, UniProt P11511); experiment: Aromatase inhibition assay (Gentest kit, CYP19 with DBF fluorometric substrate); conditions: for Aromatase inhibitory activity category: category by experimental IC50
T1 sequence (P11511 1-503): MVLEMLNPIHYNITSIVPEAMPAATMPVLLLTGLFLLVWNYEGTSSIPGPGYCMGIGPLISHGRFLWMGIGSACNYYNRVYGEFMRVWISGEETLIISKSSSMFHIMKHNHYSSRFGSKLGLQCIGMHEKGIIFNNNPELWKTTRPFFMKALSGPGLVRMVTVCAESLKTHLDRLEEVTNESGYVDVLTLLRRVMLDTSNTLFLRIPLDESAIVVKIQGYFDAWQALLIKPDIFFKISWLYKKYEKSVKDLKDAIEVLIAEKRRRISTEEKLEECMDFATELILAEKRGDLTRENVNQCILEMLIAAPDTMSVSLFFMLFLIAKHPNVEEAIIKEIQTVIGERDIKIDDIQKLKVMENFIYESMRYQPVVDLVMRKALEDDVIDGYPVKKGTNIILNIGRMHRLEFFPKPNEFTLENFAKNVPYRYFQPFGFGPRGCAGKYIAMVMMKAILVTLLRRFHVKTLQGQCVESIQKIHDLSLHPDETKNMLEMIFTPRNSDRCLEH
Method: The assay was performed with a Gentest kit using enzyme CYP19 and DBF as a fluorometric substrate. DBF was dealkylated by aromatase and then hydrolyzed, yielding the fluorescein product. […] After the incubation at 37 °C for 30 min, the reaction was terminated by adding 50 µL of 2.2 N NaOH. […] The percentage of inhibition (% inhibition) was calculated using Equation 1. […] IC50 values were determined by plotting concentrations versus % inhibition.

aromatase = experiment: QSAR (MLR) prediction of aromatase inhibitory activity; conditions: for pIC50 fold greater than parent compound 1: predicted pIC50 versus experimental pIC50 0.301 of compound 1; for folds more potent than the compared analogue: pairs: 6c > 6, 7c > 7, 7a > 7, 6 > 6a, 7b > 7a, pIC50 based
From the text: Conceptually, a QSAR model was constructed using the data obtained from experimentally tested compounds (1-11). The constructed model was subsequently used to predict the activity of the additional set of structurally modified compounds (series 1-11) that were generated in silico.
Chemical structures of the tested compounds (1-11) along with their experimental IC50 values were used to construct the QSAR model. The IC50 values were converted to pIC50 values by taking the negative logarithm to base 10 (-log IC50) to obtain a normal distribution of data points.
The chemical structures of 11 tested compounds (1-11) and 39 structurally modified compounds (series 1-11) were drawn using the GaussView software (Dennington et al., 2003[11]). Optimization was performed to obtain the low-energy conformers for further calculation of molecular descriptor values. The compounds were geometrically optimized using Gaussian 09 (Frisch et al., 2009[13]) at the semi-empirical Austin Model 1 (AM1) level, followed by density functional theory (DFT) calculation using Becke's three-parameter hybrid method with the Lee-Yang-Parr correlation functional (B3LYP) together with the 6-31g(d) level. A set of 13 quantum chemical descriptors, i.e., mean absolute atomic charge (Qm), total energy (Etotal), total dipole moment (μ), highest occupied molecular orbital energy (EHOMO), lowest unoccupied molecular orbital energy (ELUMO), energy difference of HOMO and LUMO (HOMO-LUMOGap), electron affinity (EA), ionization potential (IP), Mulliken electronegativity (χ), hardness (η), softness (S), electrophilic index (ωi) and electrophilicity (ω), was extracted using a script developed in-house. The optimized structures were further calculated to obtain an additional set of 3,224 molecular descriptors using Dragon software version 5.5 (Talete, 2007[44]). The molecular descriptors obtained from the Dragon software included 22 classes, i.e., Constitutional descriptors, Topological descriptors, Walk and path counts, Connectivity indices, Information indices, 2D autocorrelation, Edge adjacency indices, Burden eigenvalues, Topological charge indices, Eigenvalue-based indices, Randic molecular profiles, Geometrical descriptors, RDF descriptors, 3D-MoRSE descriptors, WHIM descriptors, GETAWAY descriptors, Functional group counts, Atom-centered fragments, Charge descriptors, Molecular properties, 2D binary fingerprints and 2D frequency fingerprints.
Correlation-based feature selection was employed to initially select important descriptors from a large set of descriptors obtained from the calculation. The pair-correlation of each descriptor value and bioactivity (pIC50) was calculated using a Pearson's correlation coefficient (r) of 0.6 as a cut-off value. Descriptors with |r| < 0.6 were considered weakly correlated descriptors and were excluded from the study, whereas those with |r| ≥ 0.6 were selected for further selection process using stepwise multiple linear regression (MLR) as implemented in SPSS statistics 18.0 (SPSS Inc., USA[41]). Finally, a set of important descriptors was obtained for multivariate analysis.
Multivariate analysis was performed by Waikato Environment for Knowledge Analysis (WEKA) version 3.4.5 (Witten et al., 2011[47]) using a multiple linear regression (MLR) algorithm. Selected descriptor values and pIC50 values were assigned as independent variables (X) and dependent variables (Y), respectively. The MLR model was constructed according to Equation 2: […]
The data set was divided into a training set and a testing set by means of leave-one-out cross validation (LOO-CV). Conceptually, one sample was removed from the entire data set (N) and was used as the testing set, whereas the remaining samples (N-1) were used as the training set. The same sampling process was continued until every sample in the data set was used as the testing set to predict the variable Y (activity). […]

[4] = Aromatase inhibitory activity IC50, Inactive = % inhibition ≤ 50 % at 12.5 µM
[5] = Experimental aromatase inhibitory activity (pIC50), -log IC50 of the experimental IC50 values

Row | SMILES | SI (selectivity index) (MRC-5 cell line [1]) | IC50 (MRC-5 cell line [2]) | IC50 [3, 4] | IC50 [3, 5] | Aromatase inhibitory activity category [3] | other results
1 | O=C1C(Cl)=C(Cl)C(=O)c2ccccc21 [Compound 1, 2,3-dichloro-1,4-naphthoquinone] | 45.98 | 23 ± 0.42 µM | 0.5 ± 0.3 µM | 0.5 µM | highly active (highly active (IC50 < 1 µM)) | IC50 fold lower than ketoconazole [3]: 5.2 fold
2 | O=C1C(Br)=C(Br)C(=O)c2ccccc21 [Compound 1a] | – | – | – | – | – | pIC50 fold greater than parent compound 1 (aromatase): 1.83 fold
3 | O=C1C(I)=C(I)C(=O)c2ccccc21 [Compound 1b] | – | – | – | – | – | pIC50 fold greater than parent compound 1 (aromatase): 11.90 fold; pIC50 fold greater than letrozole (aromatase; predicted pIC50 versus experimental pIC50 […] of letrozole): 1.03 fold
4 | O=C1C(F)=C(F)C(=O)c2ccccc21 [Compound 1c] | – | – | – | – | – | pIC50 fold greater than parent compound 1 (aromatase): 2.04 fold
5 | CCCCNC1=C(Cl)C(=O)c2ccccc2C1=O [Compound 2] | – | – | 8.7 ± 0.9 µM | 8.71 µM | moderately active (moderately active (1 µM < IC50 < 10 µM)) | MRC-5 (µM) cytotoxicity (MRC-5 cell line [2]): non-cytotoxic
6 | O=C1C(Cl)=C(Nc2ccccc2)C(=O)c2ccccc21 [Compound 3] | – | 16.4 ± 1.28 µM | – | – | inactive | –
7 | CN(C1=C(Cl)C(=O)c2ccccc2C1=O)c1ccccc1 [Compound 4] | 17.20 | 8.6 ± 0.77 µM | 0.5 ± 0.4 µM | 0.5 µM | highly active (highly active (IC50 < 1 µM)) | –
8 | CCN(C1=C(Cl)C(=O)c2ccccc2C1=O)c1ccccc1 [Compound 4a] | – | – | – | – | – | pIC50 fold greater than parent compound 1 (aromatase): 1.08 fold; fold less potent than letrozole (aromatase; predicted pIC50 versus letrozole): 10.68 fold
9 | O=C(O)c1ccccc1NC1=C(Cl)C(=O)c2ccccc2C1=O [Compound 5] | 4.78 | 86 ± 3.04 µM | 18 µM | 18 µM | weak | –
10 | CN(C1=C(Cl)C(=O)c2ccccc2C1=O)c1ccc(C(=O)O)cc1 [Compound 5d] | – | – | – | – | – | folds more potent than ketoconazole (aromatase; predicted pIC50 -0.329 versus ketoconazole pIC50 -0.415): 1.26 folds
11 | CC(=O)c1cccc(NC2=C(Cl)C(=O)c3ccccc3C2=O)c1 [Compound 6] | 5.01 | 15.5 ± 0.75 µM | 3.1 µM | 3.1 µM | moderately active (moderately active (1 µM < IC50 < 10 µM)) | folds more potent than the compared analogue (aromatase): 1.83 folds
12 | CC(=O)c1cccc(N(C)C2=C(Cl)C(=O)c3ccccc3C2=O)c1 [Compound 6c] | – | – | – | – | – | folds more potent than the compared analogue (aromatase): 1.67 folds
13 | CC(=O)c1ccc(NC2=C(Cl)C(=O)c3ccccc3C2=O)cc1 [Compound 7] | 2.32 | 12.3 ± 1.08 µM | 5.3 µM | 5.3 µM | moderately active (moderately active (1 µM < IC50 < 10 µM)) | –
14 | O=C1C(Cl)=C(Nc2ccc(C(=O)C(F)(F)F)cc2)C(=O)c2ccccc21 [Compound 7a] | – | – | – | – | – | folds more potent than the compared analogue (aromatase): 1.47 folds
15 | CN(C1=C(Cl)C(=O)c2ccccc2C1=O)c1ccc(C(=O)C(F)(F)F)cc1 [Compound 7b] | – | – | – | – | – | folds more potent than the compared analogue (aromatase): 2.28 folds
16 | CC(=O)c1ccc(N(C)C2=C(Cl)C(=O)c3ccccc3C2=O)cc1 [Compound 7c] | – | – | – | – | – | folds more potent than the compared analogue (aromatase): 2.73 folds
17 | O=C1C(Cl)=C(Nc2ccc(Nc3ccccc3)cc2)C(=O)c2ccccc21 [Compound 8] | 10.94 | 20.8 ± 0.68 µM | 1.9 µM | 1.9 µM | moderately active (moderately active (1 µM < IC50 < 10 µM)) | –
18 | O=C1C(Cl)=C(Nc2cccc3cccnc23)C(=O)c2ccccc21 [Compound 9] | 2.89 | 13.6 ± 1.33 µM | 4.7 µM | 4.7 µM | moderately active (moderately active (1 µM < IC50 < 10 µM)) | –
19 | O=C1C(Cl)=C(NCCc2ccccc2)C(=O)c2ccccc21 [Compound 10] | – | – | 3.3 µM | 3.3 µM | moderately active (moderately active (1 µM < IC50 < 10 µM)) | MRC-5 (µM) cytotoxicity (MRC-5 cell line [2]): non-cytotoxic
20 | COc1ccc(CCNC2=C(Cl)C(=O)c3ccccc3C2=O)cc1OC [Compound 11] | – | – | – | – | inactive | MRC-5 (µM) cytotoxicity (MRC-5 cell line [2]): non-cytotoxic
21 | COc1cccc2c1C(=O)c1c(O)c3c(c(O)c1C2=O)C[C@@](O)(C(=O)CO)C[C@@H]3O[C@H]1C[C@H](N)[C@H](O)[C@H](C)O1 [Doxorubicin, reference compound] | – | – | – | – | – | MRC-5 (µM) cytotoxicity (MRC-5 cell line [2]): non-cytotoxic
